Laboratory results reported in US20030003488A1, “Regulation of human mitochondrial deformylase” (priority 1999, published 2003).

Each substance was assayed on human mitochondrial deformylase (assay: Expression of mitochondrial deformylase by Western blotting in antisense-treated HCT 116 cells). Details: 10 micromolar once per day for seven days.
Format: cell-based

| Substance | expression of the mitochondrial deformylase as determined by Western blotting |
| --- | --- |
| 5′-AAAATGCAGGTAAGCATGTGAAAA-3′ [oligonucleotide (2)] | significantly reduced expression |
| 5′-TCAACTGACTAGATGTACATGGAC-3′ (DNA TCAACTGACTAGATGTACATGGAC; chemistry not given here) [oligonucleotide (3), reference compound] | not observed |
| 5′-CAGCGATTTAAATACGGAACAAGG-3′ [oligonucleotide (1)] | significantly reduced expression |
